Where “and” joins values, the source holds several entries; their conditions need not be identical. Equal entries are not always repeated. Toxic doses and inconclusive results are not listed. No stated cut-off is given here; in the data, active means T/C of 150% or more; inactive means T/C below 125%.
System: L1210 leukemia ip in BDF1 mice, survival T/C
Assay: NCI In Vivo Anticancer Drug Screen. Data for tumor model L1210 Leukemia (intraperitoneal) in B6D2F1 (BDF1) mice
Conditions: endpoint: mean survival time, higher = longer survival
Procedure, shortened: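 Transplanted-tumor mice were given test agent; controls received vehicle only. Survival readings from the two groups were divided (treated over control).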

[1] = dose: 100.0 mg/kg/injection, schedule: Q01DX009 (ip), vehicle: Klucel (hydroxypropylcellulose) (HPC)
[2] = dose: 100.0 mg/kg/injection, schedule: Q04DX003 (ip), vehicle: Klucel (hydroxypropylcellulose) (HPC)
[3] = dose: 200.0 mg/kg/injection, schedule: Q01DX009 (ip), vehicle: Klucel (hydroxypropylcellulose) (HPC)
[4] = dose: 200.0 mg/kg/injection, schedule: Q04DX003 (ip), vehicle: Klucel (hydroxypropylcellulose) (HPC)
[5] = dose: 400.0 mg/kg/injection, schedule: Q01DX009 (ip), vehicle: Klucel (hydroxypropylcellulose) (HPC)
[6] = dose: 400.0 mg/kg/injection, schedule: Q04DX003 (ip), vehicle: Klucel (hydroxypropylcellulose) (HPC)
[7] = dose: 75.0 mg/kg/injection, schedule: Q01DX001 (ip), vehicle: saline
[8] = dose: 150.0 mg/kg/injection, schedule: Q01DX001 (ip), vehicle: saline
[9] = dose: 12.5 mg/kg/injection, schedule: Q01DX009 (ip), vehicle: saline
[10] = dose: 50.0 mg/kg/injection, schedule: Q01DX009 (ip), vehicle: saline
[11] = dose: 50.0 mg/kg/injection, schedule: Q01DX009 (ip), vehicle: saline with Tween-80
[12] = dose: 100.0 mg/kg/injection, schedule: Q01DX009 (ip), vehicle: saline with Tween-80
[13] = dose: 200.0 mg/kg/injection, schedule: Q01DX009 (ip), vehicle: saline with Tween-80

Measured: T/C

O=CC(C=O)[N+](=O)[O-]
inactive: [1] 100 % of control | dose: 100.0 mg/kg/injection, schedule: Q04DX002 (ip), vehicle: Klucel (hydroxypropylcellulose) (HPC) 97 % of control | [2] 97 % of control | [3] 105 % of control | dose: 200.0 mg/kg/injection, schedule: Q04DX002 (ip), vehicle: Klucel (hydroxypropylcellulose) (HPC) 94 % of control | [4] 102 % of control | [5] 108 % of control | dose: 400.0 mg/kg/injection, schedule: Q04DX002 (ip), vehicle: Klucel (hydroxypropylcellulose) (HPC) 105 % of control | [6] 102 % of control

C=CCN1C(=O)C=CC1=O
inactive: dose: 3.0 mg/kg/injection, schedule: Q04DX002 (ip), vehicle: Klucel (hydroxypropylcellulose) (HPC) 108 % of control | dose: 6.0 mg/kg/injection, schedule: Q04DX002 (ip), vehicle: Klucel (hydroxypropylcellulose) (HPC) 93 % of control

O=C1c2cccc([N+](=O)[O-])c2C(=O)N1CCl
inactive: dose: 100.0 mg/kg/injection, schedule: Q01DX001 (ip), vehicle: steriod suspending solution 97 % of control | dose: 200.0 mg/kg/injection, schedule: Q01DX001 (ip), vehicle: steriod suspending solution 105 % of control

COc1ccc(-c2c(CO)cc(OC)c(OC)c2OC)c(CO)c1
inactive: [7] 99 % of control | [8] 99 % of control | dose: 300.0 mg/kg/injection, schedule: Q01DX001 (ip), vehicle: saline 92 % of control

COC(C#N)C(O)(c1ccccc1)c1ccccc1 (stereo not drawn)
inactive: dose: 75.0 mg/kg/injection, schedule: Q01DX001 (ip), vehicle: other 94 % of control | dose: 150.0 mg/kg/injection, schedule: Q01DX001 (ip), vehicle: other 100 % of control

N#CC[CH2][Sn]([Br])([Br])[CH2]CC#N
inactive: [9] 103 % of control | [10] 96 % of control

C/C(=C\c1ccc(O)cc1)[N+](=O)[O-]
inactive: dose: 50.0 mg/kg/injection, schedule: Q01DX009 (ip), vehicle: alcohol 104 % of control | dose: 100.0 mg/kg/injection, schedule: Q01DX009 (ip), vehicle: alcohol 105 % of control | dose: 100.0 mg/kg/injection, schedule: Q04DX003 (ip), vehicle: acetone 96 % of control | dose: 200.0 mg/kg/injection, schedule: Q01DX009 (ip), vehicle: alcohol 91 % of control | dose: 200.0 mg/kg/injection, schedule: Q04DX003 (ip), vehicle: acetone 105 % of control

C1CCC(OB2OB(OC3CCCCC3)OB(OC3CCCCC3)O2)CC1
inactive: dose: 50.0 mg/kg/injection, schedule: Q04DX003 (ip), vehicle: saline 93 % of control | dose: 100.0 mg/kg/injection, schedule: Q01DX001 (ip), vehicle: saline 93 % of control | dose: 100.0 mg/kg/injection, schedule: Q01DX009 (ip), vehicle: saline 97 % of control | dose: 100.0 mg/kg/injection, schedule: Q04DX003 (ip), vehicle: saline 98 % of control | dose: 200.0 mg/kg/injection, schedule: Q01DX001 (ip), vehicle: saline 98 % of control | dose: 200.0 mg/kg/injection, schedule: Q01DX009 (ip), vehicle: saline 110 % of control | dose: 200.0 mg/kg/injection, schedule: Q04DX003 (ip), vehicle: saline 103 % of control | dose: 400.0 mg/kg/injection, schedule: Q01DX001 (ip), vehicle: saline 86 % of control | dose: 400.0 mg/kg/injection, schedule: Q01DX009 (ip), vehicle: saline 111 % of control

CC(C)CCNc1ncnc2nc[nH]c12
inactive: [7] 90 % of control | [8] 92 % of control

Nc1cc2c3c(cccc3c1)C(=O)N(Cc1ccccc1)C2=O
inactive: dose: 75.0 mg/kg/injection, schedule: Q01DX009 (ip), vehicle: Klucel (hydroxypropylcellulose) (HPC) 89 % of control | dose: 150.0 mg/kg/injection, schedule: Q01DX009 (ip), vehicle: Klucel (hydroxypropylcellulose) (HPC) 92 % of control | dose: 300.0 mg/kg/injection, schedule: Q01DX009 (ip), vehicle: Klucel (hydroxypropylcellulose) (HPC) 97 % of control

Oc1ccccc1SSc1ccccc1O
inactive: [11] 100 % of control | [12] 104 % of control | [13] 103 % of control

COC(=O)C(Cc1c[nH]c2ccccc12)NC(=O)C(NC(=O)OC(C)(C)C)C(C)C (stereo not drawn)
inactive: dose: 100.0 mg/kg/injection, schedule: Q01DX001 (ip), vehicle: carboxymethylcellulose (CMC) 100 % of control | dose: 200.0 mg/kg/injection, schedule: Q01DX001 (ip), vehicle: carboxymethylcellulose (CMC) 94 % of control | dose: 400.0 mg/kg/injection, schedule: Q01DX001 (ip), vehicle: carboxymethylcellulose (CMC) 92 % of control

CC(=O)Nc1ccc(C=NCCN=Cc2ccc(NC(C)=O)cc2)cc1
inactive: [2] 97 % of control | [4] 88 % of control | [6] 88 % of control

Cc1ccc(S(=O)(=O)On2cccc2C#N)cc1
inactive: dose: 25.0 mg/kg/injection, schedule: Q01DX009 (ip), vehicle: saline with Tween-80 102 % of control | [11] 94 % of control and 96 % of control | [12] 98 % of control | [13] 97 % of control and 102 % of control

CCCC(=O)NN=C(C)C
inactive: [9] 109 % of control | dose: 25.0 mg/kg/injection, schedule: Q01DX009 (ip), vehicle: saline 109 % of control | [10] 95 % of control

NC(=O)c1ccc[n+](CCCl)c1
inactive: dose: 62.5 mg/kg/injection, schedule: Q01DX010 (ip), vehicle: saline 94 % of control | dose: 125.0 mg/kg/injection, schedule: Q01DX010 (ip), vehicle: saline 93 % of control

CN=C(NC)c1cccc(NC(=O)Nc2ccc(NC(=O)Nc3cccc(C(=NC)NC)c3)cc2)c1
inactive: dose: 2.3 mg/kg/injection, schedule: Q01DX Z (ip), vehicle: carboxymethylcellulose (CMC) 93 % of control | dose: 3.5 mg/kg/injection, schedule: Q01DX Z (ip), vehicle: carboxymethylcellulose (CMC) 97 % of control | dose: 5.3 mg/kg/injection, schedule: Q01DX Z (ip), vehicle: carboxymethylcellulose (CMC) 95 % of control | dose: 5.5 mg/kg/injection, schedule: Q01DX Z (ip), vehicle: carboxymethylcellulose (CMC) 96 % of control | dose: 8.0 mg/kg/injection, schedule: Q01DX Z (ip), vehicle: carboxymethylcellulose (CMC) 97 % of control | dose: 8.3 mg/kg/injection, schedule: Q01DX Z (ip), vehicle: carboxymethylcellulose (CMC) 98 % of control | dose: 12.5 mg/kg/injection, schedule: Q01DX Z (ip), vehicle: carboxymethylcellulose (CMC) 101 % of control | dose: 18.75 mg/kg/injection, schedule: Q01DX Z (ip), vehicle: carboxymethylcellulose (CMC) 115 % of control

CC(C)[O][In]([O]C(C)C)[O]C(C)C
inactive: dose: 50.0 mg/kg/injection, schedule: Q04DX003 (ip), vehicle: saline with Tween-80 96 % of control | dose: 100.0 mg/kg/injection, schedule: Q04DX003 (ip), vehicle: saline with Tween-80 99 % of control | dose: 200.0 mg/kg/injection, schedule: Q04DX003 (ip), vehicle: saline with Tween-80 91 % of control | dose: 400.0 mg/kg/injection, schedule: Q04DX003 (ip), vehicle: saline with Tween-80 96 % of control

COc1ccc(OC)c(NC(=O)N(C)CCC#N)c1
inactive: [1] 106 % of control | [3] 101 % of control | [5] 106 % of control

Cn1c(=O)c2ccccc2c2ccccc21
inactive: [1] 99 % of control | [2] 100 % of control | [3] 97 % of control | [4] 100 % of control | [5] 100 % of control | [6] 105 % of control

From PubChem BioAssay AID248 (DTP/NCI, 2004)
